Results taken from publication PMC5598064 (Cardiovascular Diabetology, 2017).
Where two headings read alike, the source gives them in different places.

Key:
[1] = target: L type Ca^2+; experiment: Radioligand binding, cardiovascular-related targets; details: antagonism of radioligand binding; read-out: IC50 or EC50
[2] = target: GABA-A α1B2γ2 (Homo sapiens, UniProt P14867+P18507+P47870); experiment: as above
[3] = target: Cardiac hNAV1.5 (Homo sapiens, UniProt Q14524); experiment: as above
[4] = target: T1, Adrenergic α1β (Homo sapiens, UniProt P35368); experiment: as above
T1 sequence (P35368 1-520): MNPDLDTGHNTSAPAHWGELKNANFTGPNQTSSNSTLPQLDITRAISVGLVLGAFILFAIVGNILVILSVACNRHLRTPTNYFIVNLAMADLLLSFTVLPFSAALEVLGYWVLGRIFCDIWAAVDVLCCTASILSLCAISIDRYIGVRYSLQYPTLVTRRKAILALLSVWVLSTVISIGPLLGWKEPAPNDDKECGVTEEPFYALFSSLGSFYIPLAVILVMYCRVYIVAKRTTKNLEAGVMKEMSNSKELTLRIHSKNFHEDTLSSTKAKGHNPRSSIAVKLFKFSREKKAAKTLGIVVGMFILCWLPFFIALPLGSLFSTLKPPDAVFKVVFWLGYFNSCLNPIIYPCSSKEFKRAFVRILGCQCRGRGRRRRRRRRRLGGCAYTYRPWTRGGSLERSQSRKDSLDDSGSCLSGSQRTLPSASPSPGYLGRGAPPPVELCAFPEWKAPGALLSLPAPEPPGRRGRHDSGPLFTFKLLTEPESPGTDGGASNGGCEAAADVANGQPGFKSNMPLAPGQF

[5] = target: T2, Muscarinic M2 (Homo sapiens, UniProt P08172); experiment: as above
T2 sequence (P08172 1-466): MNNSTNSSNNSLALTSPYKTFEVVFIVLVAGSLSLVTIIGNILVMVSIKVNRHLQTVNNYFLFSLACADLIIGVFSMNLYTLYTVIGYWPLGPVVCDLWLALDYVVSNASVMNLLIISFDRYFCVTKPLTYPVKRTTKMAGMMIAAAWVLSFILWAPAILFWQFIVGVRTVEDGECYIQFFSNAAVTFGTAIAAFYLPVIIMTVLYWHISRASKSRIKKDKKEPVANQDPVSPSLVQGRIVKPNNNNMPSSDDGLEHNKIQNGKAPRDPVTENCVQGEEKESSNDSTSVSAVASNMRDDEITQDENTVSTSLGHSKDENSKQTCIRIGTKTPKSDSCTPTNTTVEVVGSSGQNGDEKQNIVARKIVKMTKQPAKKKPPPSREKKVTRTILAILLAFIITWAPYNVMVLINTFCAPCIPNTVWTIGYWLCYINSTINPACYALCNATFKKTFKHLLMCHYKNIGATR

[6] = target: ACE; experiment: as above
ACE, sequence (P22303 32-614, species assumed): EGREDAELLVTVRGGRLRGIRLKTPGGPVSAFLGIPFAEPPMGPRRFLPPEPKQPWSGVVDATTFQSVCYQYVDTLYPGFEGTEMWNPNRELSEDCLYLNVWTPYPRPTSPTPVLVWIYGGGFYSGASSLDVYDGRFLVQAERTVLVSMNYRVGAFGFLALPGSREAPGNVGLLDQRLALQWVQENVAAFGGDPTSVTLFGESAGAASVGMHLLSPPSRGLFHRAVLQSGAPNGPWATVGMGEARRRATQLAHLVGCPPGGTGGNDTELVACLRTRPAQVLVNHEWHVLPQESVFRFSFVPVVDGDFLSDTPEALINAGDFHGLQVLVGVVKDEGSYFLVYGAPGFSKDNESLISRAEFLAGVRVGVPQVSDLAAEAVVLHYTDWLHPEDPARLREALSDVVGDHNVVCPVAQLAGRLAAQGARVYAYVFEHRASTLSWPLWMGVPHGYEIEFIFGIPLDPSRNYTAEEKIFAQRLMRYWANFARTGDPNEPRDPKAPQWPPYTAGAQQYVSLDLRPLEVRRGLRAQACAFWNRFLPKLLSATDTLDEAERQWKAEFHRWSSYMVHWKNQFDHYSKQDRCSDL

[7] = target: PDE (phosphodiesterase-3); experiment: as above; details: antagonism of radioligand binding; read-out: IC50 or EC50
[8] = test system: receptors, ion channels, and enzymes; experiment: Radioligand binding panel, all targets assessed; details: 10 μM
[9] = test system: healthy individuals; details: in vivo, po
Experimental: (§1) Participants who were randomized to 75 or 100 mg received their second dose 30 min before consuming the high fat breakfast. Vital sign and 12-lead electrocardiogram (ECG) measurements were collected at screening, at various times throughout the study, and at discharge.

[10] = test system: healthy individuals; details: for concentration-dependent effect on QTcP: in vivo
Text: (§2) In a randomized, double-blind, 4-period, 4-treatment, cross-over tQTc study, healthy individuals were randomized to one of four treatment sequence groups. […] Serial blood samples for pharmacokinetic analysis were collected on day 4 of each period.
To account for the high degree of correlation between heart rate and QT interval, various correction formulae, including Bazett’s formula (QTcB), Fridericia’s formula (QTcF), QT interval corrected for heart rate (QTc) based on linear population-based analysis (QTcP), and QT interval corrected for heart rate based on log-linear population-based analysis (QTcLogP) were applied to obtain a QT interval independent of heart rate.

[11] = test system: rodents and non-rodents; details: in vivo, po
[12] = test system: healthy participants and patients with T2D; details: human, in vivo
Experimental: as §1
(§3) All doses were administered 1 h before consumption of a standard American Heart Association Step 1 diet (≤30% of calories from fats) or a standard liquid meal on days 8 and 13 (BoostPlus®; Nestlé). […] Vital sign and 12-lead ECG measurements were collected at screening, at various times throughout the study, and at discharge. Multiple blood samples for pharmacokinetic analysis were collected on days 1–2 and 14–15.
as §2
In a randomized, placebo-controlled, sequential MAD study, 40 patients with T2D were randomized to receive 2.5, 5, 15, 30, or 50 mg/day or matching placebo for 14 days. All doses were administered after consumption of a standard breakfast. […] Vital sign measurements and 12-lead ECG measurements were collected at screening, at various times throughout the study, and at discharge. Serial blood samples for pharmacokinetic analysis were collected on days 1, 7, and 14.

[13] = test system: rabbit Purkinje fibers; details: mean (SEM)
[14] = test system: rat; details: in vivo, iv, 5.9 mg/kg
[15] = test system: dog; details: in vivo, iv, 5.9 mg/kg
[16] = test system: monkeys; details: monkey, in vivo
[17] = test system: dogs; details: dog, in vivo
[18] = test system: healthy individuals; details: in vivo
Experimental: as §3

[19] = healthy individuals, saxagliptin 5 mg, highest recommended therapeutic dose; cited from earlier work

GABA-A α1B2γ2, sequence (P14867 28-456): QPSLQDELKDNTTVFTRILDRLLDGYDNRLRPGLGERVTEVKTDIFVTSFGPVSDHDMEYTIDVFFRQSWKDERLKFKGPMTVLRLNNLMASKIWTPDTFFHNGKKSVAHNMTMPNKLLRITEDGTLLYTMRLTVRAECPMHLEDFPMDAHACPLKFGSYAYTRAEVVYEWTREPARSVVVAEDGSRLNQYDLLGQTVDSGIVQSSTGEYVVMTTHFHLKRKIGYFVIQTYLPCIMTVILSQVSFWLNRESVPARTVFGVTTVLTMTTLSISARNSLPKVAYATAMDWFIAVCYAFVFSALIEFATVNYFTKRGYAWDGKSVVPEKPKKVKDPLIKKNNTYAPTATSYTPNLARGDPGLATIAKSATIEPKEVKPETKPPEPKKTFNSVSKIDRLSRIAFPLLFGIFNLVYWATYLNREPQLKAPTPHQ
GABA-A α1B2γ2, sequence (P47870 25-512 limits assumed): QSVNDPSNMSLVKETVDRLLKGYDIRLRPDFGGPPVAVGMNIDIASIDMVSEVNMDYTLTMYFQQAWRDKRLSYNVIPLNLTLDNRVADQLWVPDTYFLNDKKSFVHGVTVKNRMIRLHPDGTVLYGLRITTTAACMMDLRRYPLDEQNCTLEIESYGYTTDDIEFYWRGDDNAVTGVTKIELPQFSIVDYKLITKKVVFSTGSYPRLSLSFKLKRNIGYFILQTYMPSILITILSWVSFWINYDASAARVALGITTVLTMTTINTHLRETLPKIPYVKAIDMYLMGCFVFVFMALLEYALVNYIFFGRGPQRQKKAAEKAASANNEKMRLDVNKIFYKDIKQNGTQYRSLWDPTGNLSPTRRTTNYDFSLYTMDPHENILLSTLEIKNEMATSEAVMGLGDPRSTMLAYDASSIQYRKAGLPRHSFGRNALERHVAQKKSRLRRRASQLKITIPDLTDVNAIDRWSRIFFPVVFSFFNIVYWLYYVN
GABA-A α1B2γ2, sequence (P18507 40-475): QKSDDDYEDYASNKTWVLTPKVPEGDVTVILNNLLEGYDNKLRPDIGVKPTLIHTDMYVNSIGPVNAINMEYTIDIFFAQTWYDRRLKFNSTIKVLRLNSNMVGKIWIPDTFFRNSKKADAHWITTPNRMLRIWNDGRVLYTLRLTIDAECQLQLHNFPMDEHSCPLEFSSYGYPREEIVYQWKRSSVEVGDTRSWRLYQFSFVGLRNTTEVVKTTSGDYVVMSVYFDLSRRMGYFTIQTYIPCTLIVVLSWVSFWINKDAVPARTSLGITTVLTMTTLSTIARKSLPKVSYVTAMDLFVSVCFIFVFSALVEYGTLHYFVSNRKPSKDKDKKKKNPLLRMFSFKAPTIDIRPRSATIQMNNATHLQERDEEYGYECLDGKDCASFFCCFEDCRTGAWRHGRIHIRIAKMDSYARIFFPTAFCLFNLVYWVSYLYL
Cardiac hNAV1.5, sequence (Q14524 whole entry): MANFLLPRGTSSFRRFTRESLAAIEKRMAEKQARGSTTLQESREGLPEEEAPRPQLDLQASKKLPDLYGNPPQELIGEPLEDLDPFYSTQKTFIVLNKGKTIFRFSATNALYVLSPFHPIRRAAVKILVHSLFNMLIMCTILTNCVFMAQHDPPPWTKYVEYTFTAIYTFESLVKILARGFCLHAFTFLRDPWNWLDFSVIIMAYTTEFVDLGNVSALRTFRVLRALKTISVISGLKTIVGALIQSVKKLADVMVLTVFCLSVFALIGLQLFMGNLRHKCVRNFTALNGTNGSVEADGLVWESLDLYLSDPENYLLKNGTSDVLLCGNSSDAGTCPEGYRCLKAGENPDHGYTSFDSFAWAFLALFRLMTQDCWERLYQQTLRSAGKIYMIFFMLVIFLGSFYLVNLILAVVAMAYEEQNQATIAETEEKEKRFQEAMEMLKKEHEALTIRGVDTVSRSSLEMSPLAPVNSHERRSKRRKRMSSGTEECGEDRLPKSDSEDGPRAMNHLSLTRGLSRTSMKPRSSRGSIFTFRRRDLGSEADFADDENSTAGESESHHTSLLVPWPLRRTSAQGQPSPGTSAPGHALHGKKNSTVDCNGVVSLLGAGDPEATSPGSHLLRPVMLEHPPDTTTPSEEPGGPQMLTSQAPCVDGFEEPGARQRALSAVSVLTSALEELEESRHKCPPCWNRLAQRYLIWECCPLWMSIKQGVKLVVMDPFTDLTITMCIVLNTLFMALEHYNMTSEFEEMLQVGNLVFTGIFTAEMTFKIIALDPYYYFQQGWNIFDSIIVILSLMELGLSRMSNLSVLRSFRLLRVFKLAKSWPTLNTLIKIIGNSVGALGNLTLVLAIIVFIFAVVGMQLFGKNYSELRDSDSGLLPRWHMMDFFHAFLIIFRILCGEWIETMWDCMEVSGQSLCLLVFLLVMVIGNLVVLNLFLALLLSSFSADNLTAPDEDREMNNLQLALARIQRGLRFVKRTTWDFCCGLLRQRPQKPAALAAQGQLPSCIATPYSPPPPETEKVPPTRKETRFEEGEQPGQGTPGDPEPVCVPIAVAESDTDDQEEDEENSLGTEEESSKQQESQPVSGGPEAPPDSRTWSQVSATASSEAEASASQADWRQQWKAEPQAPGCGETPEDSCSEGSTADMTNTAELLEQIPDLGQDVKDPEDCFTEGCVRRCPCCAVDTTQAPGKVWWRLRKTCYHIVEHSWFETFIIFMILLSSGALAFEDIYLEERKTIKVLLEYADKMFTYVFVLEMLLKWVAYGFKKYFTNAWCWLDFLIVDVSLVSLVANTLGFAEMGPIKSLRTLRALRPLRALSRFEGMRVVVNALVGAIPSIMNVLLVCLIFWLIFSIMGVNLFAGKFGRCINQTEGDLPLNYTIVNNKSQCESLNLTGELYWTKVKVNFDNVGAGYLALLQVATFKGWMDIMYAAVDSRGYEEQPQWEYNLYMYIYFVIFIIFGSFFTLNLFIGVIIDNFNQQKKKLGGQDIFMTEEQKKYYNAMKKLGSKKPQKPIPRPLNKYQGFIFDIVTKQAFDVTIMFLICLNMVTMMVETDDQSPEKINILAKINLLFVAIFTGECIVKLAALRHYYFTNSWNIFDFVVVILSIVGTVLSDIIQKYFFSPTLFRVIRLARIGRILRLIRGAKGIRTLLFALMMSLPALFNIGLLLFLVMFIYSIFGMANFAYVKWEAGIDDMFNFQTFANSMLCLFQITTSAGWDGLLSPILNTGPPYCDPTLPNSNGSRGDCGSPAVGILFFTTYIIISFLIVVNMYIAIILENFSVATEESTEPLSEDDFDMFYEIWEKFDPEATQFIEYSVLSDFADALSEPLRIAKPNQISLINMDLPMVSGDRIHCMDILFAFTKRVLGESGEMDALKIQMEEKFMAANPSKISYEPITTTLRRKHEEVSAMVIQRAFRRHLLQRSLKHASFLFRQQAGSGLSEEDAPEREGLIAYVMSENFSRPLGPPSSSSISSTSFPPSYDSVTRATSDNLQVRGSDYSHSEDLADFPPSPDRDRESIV

For `N#C[C@@H]1C[C@@H]2C[C@@H]2N1C(=O)[C@@H](N)C12CC3CC(CC(O)(C3)C1)C2` [saxagliptin], the IC50 [1] was > 25 µM, the IC50 [2] was > 30 µM and the IC50 [3] was > 30 µM. The IC50 [4] was > 30 µM, the IC50 [5] was > 30 µM and the IC50 [6] was > 60 µM. The IC50 [7] was > 30 µM, the “inhibition on any targets assessed” value [8] was < 25% and the “dose excreted (renal excretion)” value ([9]; human) was “approximately 20%”. For the same molecule, the “mean renal clearance versus mean GFR” value [9] was “exceeded mean GFR”, the “plasma exposures versus dose” value [9] was “generally increased proportionally with dose” and the “concentration-dependent effect on QTcP” value [10] was “no concentration-dependent effect”. The “multiples of human exposures based on AUC” value [11] was “up to 2200 times”, the “effect on vital sign measurements” value [12] was “no effect” and the “marked abnormalities in AST” value [12] was “No marked abnormalities”. For the same molecule, the APD50 ([13]; 3 μM) was 149 (24) ms, the “APD50 % Change” value ([13]; 3 μM) was 0 (0) % and the APD90 ([13]; 3 μM) was 235 (11) ms. For the same molecule, the “APD90 % Change” value ([13]; 3 μM) was 2 (1) %, the “Maximum upstroke velocity (Vmax)” value ([13]; 3 μM) was 446 (15) v/s and the “Maximum upstroke velocity (Vmax) % Change” value ([13]; 3 μM) was −5 (3) %. For the same molecule, the Overshoot ([13]; 3 μM) was 29 (4) mV, the “Overshoot % Change” value ([13]; 3 μM) was −7 (12) % and the “Resting Membrane Potential” value ([13]; 3 μM) was −84 (1) mV. For the same molecule, the “Resting Membrane Potential % Change” value ([13]; 3 μM) was 0 (1) %, the APD50 ([13]; 10 μM) was 153 (26) ms and the “APD50 % Change” value ([13]; 10 μM) was 2 (1) %. For the same molecule, the APD90 ([13]; 10 μM) was 237 (14) ms, the “APD90 % Change” value ([13]; 10 μM) was 2 (1) % and the “Maximum upstroke velocity (Vmax)” value ([13]; 10 μM) was 462 (21) v/s. For the same molecule, the “Maximum upstroke velocity (Vmax) % Change” value ([13]; 10 μM) was −2 (3) %, the Overshoot ([13]; 10 μM) was 32 (4) mV and the “Overshoot % Change” value ([13]; 10 μM) was 1 (11) %. For the same molecule, the “Resting Membrane Potential” value ([13]; 10 μM) was −86 (1) mV, the “Resting Membrane Potential % Change” value ([13]; 10 μM) was 2 (2) % and the APD50 ([13]; 30 μM) was 152 (21) ms. For the same molecule, the “APD50 % Change” value ([13]; 30 μM) was 3 (4) %, the APD90 ([13]; 30 μM) was 239 (11) ms and the “APD90 % Change” value ([13]; 30 μM) was 3 (2) %. For the same molecule, the “Maximum upstroke velocity (Vmax)” value ([13]; 30 μM) was 437 (13) v/s, the “Maximum upstroke velocity (Vmax) % Change” value ([13]; 30 μM) was −7 (5) % and the Overshoot ([13]; 30 μM) was 29 (5) mV. The “Overshoot % Change” value ([13]; 30 μM) was −7 (14) %, the “Resting Membrane Potential” value ([13]; 30 μM) was −85 (2) mV and the “Resting Membrane Potential % Change” value ([13]; 30 μM) was 1 (3) %. The adverse effects [14] was “no adverse effects”, the adverse effects [15] was “no adverse effects” and the “Cmax exposure multiple of Cmax at the 5 mg oral human dose” value ([16]; 3.4 mg/kg) was 280 times. The adverse effects ([16]; iv, 0.225 mg/kg) was “No adverse effects”, the “decreased blood pressure (reductions)” value ([16]; iv, 3.4 mg/kg) was < 40 mmHg and the heart weight [17] was “No increase”. For the same molecule, the “Cmax exposure multiple of the 5 mg clinical dose” value ([17]; po) was ≤ 750 times.
With 5-hydroxy saxagliptin the “dose excreted (renal excretion)” value [9] was ~40%, the “mean renal clearance versus mean GFR” value [9] was “did not exceed mean GFR” and the “plasma exposures versus dose” value [9] was “generally increased proportionally with dose”. The pharmacokinetics versus dose [18] was “appeared linear with respect to dose”, the “concentration-dependent effect on QTcP” value [10] was “no concentration-dependent effect” and the maximum plasma concentration [19] was 0.047 µg/mL.
For `COc1c(N2C[C@@H]3CCCN[C@@H]3C2)c(F)cc2c(=O)c(C(=O)O)cn(C3CC3)c12` [moxifloxacin], the “maximum placebo-adjusted, time-matched change from baseline in QTcP” value ([10]; 400 mg, 4 h after dosing) was 12.52 ms, the “one-sided lower 95% confidence bound of QTcP change at time of maximum effect” value ([10]; 400 mg, 4 h after dosing) was 7.83 ms and the “individuals with QTcP change from baseline >30 ms” value ([10]; after treatment with placebo and moxifloxacin) was 1.
